This assay has as its system HCV replicon (strain 1b) in HUH-7 cells. Kind of assay: HCV replicon FRET assay. Format: cell-based. The settings on record: Hepatitis C virus. An excerpt: An HCV replicon whole cell system was established as described by Lohmann V, Korner F, Koch J, Herian U, Theilmann L, Bartenschlager R., Science 285(5424):110-3 (1999). This system enabled us to evaluate the effects of our HCV Protease compounds on HCV RNA replication. Briefly, using the HCV strain 1b sequence described in the Lohmann paper (Assession number: AJ238799), an HCV cDNA was synthesized by Operon Technologies, Inc. (Alameda, Calif.), and the full-length replicon was then assembled in plasmid pGem9zf(+) (Promega, Madison, Wis.) using standard molecular biology techniques. The replicon consists of (i) the HCV 5′ UTR fused to the first 12 amino acids of the capsid protein, (ii) the neomycin phosphotransferase gene (neo), (iii) the IRES from encephalomyocarditis virus (EMCV), and (iv) HCV NS3 to NS5B genes and the HCV 3′ UTR. Plasmid DNAs were linearized with ScaI and RNA transcripts were synthesized in vitro using the T7 MegaScript transcription kit (Aibion, Austin, Tex.) according to manufacturer's directions. In vitro transcripts of the cDNA were transfected into the human hepatoma cell line, HUH-7. […] Resulting cell lines were characterized for positive and negative strand RNA production and protein production over time.
The HCV replicon FRET assay was developed to monitor the inhibitory effects of compounds described in the disclosure on NCV viral replication. HUH-7 cells, constitutively expressing the HCV replicon, were grown in Dulbecco's Modified Eagle Media (DMEM) (Gibco-BRL) containing 10% Fetal calf serum (FCS) (Sigma) and 1 mg/ml G418 (Gibco-BRL). Cells were seeded the night before (1.5×10^4 cells/well) in 96-well tissue-culture sterile plates. Compound and no compound controls were prepared in DMEM containing 4% FCS, 1:100 Penicillin/Streptomysin (Gibco-BRL), 1:100 L-glutamine and 5% DMSO in the dilution plate (0.5% DMSO final concentration in the assay). Compound/DMSO mixes were added to the cells and incubated for 4 days at 37° C. After 4 days, cells were first assessed for cytotoxicity using alamar Blue (Trek Diagnotstic Systems) for a CC50 reading. The toxicity of compound (CC50) was determined by adding 1/10th volume of alamar Blue to the media incubating the cells. After 4 h, the fluorescence signal from each well was read, with an excitation wavelength at 530 nm and an emission wavelength of 580 nm, using the Cytofluor Series 4000 (Perspective Biosystems). Plates were then rinsed thoroughly with Phosphate-Buffered Saline (PBS) (3 times 150 μl).

pEC50: −log10 of the molar value. Where two headings read alike, the source gives them in different places.

Take `C=C[C@@H]1C[C@]1(NC(=O)[C@@H]1C[C@@H](OC(=O)N2Cc3cccc(F)c3C2)CN1C(=O)C(Nc1cc(C)cc(C)n1)C(C)C)C(=O)NS(=O)(=O)C1CC1` (single isomer, unassigned) [Compound 2A]: the negative logarithm of the EC50 (pEC50) (as a rule, −log10 of the EC50, conventionally taken in molar units) is, setting by setting: (Huh-7, HCV replicon, activity range, read-out: EC50 (range or value)) 7.00 to 7.85; (Huh-7, replicon FRET assay, read-out: EC50 value in the replicon FRET assay) 7.16.

For the origin of these results see patent US20090285774A1, “Hepatitis C Virus Inhibitors” (Bristol-Myers Squibb Company, priority 2008, published 2009).
